{"source": "patent US8809389B2", "about": "“Substituted alkynyl phenoxy compounds as new synergists in pesticidal compositions” (Endura S.p.A., priority 2009, dated 2014)", "key": {"[1]": {"test_system": "P450 enzymes (oxidases) of pollen beetle homogenate", "assay": "Oxidase assay: 7-ethoxycoumarin O-deethylation inhibition in pollen beetle homogenate", "format": "biochemical, Meligethes aeneus", "details": "3 μl of 10 mM compound, enzyme plus acetone = 100", "experimental": "The ability of the novel compositions comprising the synergists of Formula (I) to inhibit P450 enzymes, a major mechanism conferring resistance to xenobiotics, was measured using pollen beetle homogenate.\nApproximately 50 non-sexed adult pollen beetle from each population were homogenised on ice in 1 ml 0.1 M sodium phosphate buffer, pH 7.6, containing, 1 mM EDTA, 1 mM DTT, 1 mM PTU, 1 mM PMSF and centrifuged at 10 000×g for 10 min. The resulting supernatant was used as the enzyme source.\nThe O-deethylation inhibition by compounds of Example 2 or 3 was measured using 7-ethoxycoumarin (7-EC) according to Ullrich and Weber (Ullrich V and Weber P, The O-dealkylation of 7-ethoxycoumarin by liver microsomes. Z Physiol Chem 353: 1171-1177 (1972)) and adapted to the microplate format as described by DeSousa (De Sousa G, Cuany A, Brun A, Amichot M, Rahmani R, Berge J B, A microfluorometric method for measuring ethoxycoumarin-O-deethylase activity on individual Drosophila melanogaster abdomens: interest for screening resistance in insect populations Analyt. Biochem 229: 86-91 (1995)). Briefly, 7-EC was dissolved in ethanol to make a 20 mM stock solution and diluted by the addition of 0.1 M, pH 7.8 sodium phosphate buffer to give a concentration of 0.5 mM. Fifty microliters of pollen beetle enzyme were added to separate wells of a microplate, followed by the addition of 3 μl 10 mM of either compounds of Example 2 or 3 or acetone only. After 10 min incubation in room temperature, 80 μl 0.5 mM 7-EC was added following by another 5 min at 30° C. The reaction initiated by the addition of 10 μl 9.6 mM NADPH in 0.1 M sodium phosphate, pH 7.8. Enzyme activity was measured in a Victor^2 1420 multilabel counter (Wallac, Milton Keynes, UK) for 60 min with readings taken every 5 min, using an excitation wavelength of 370 nm and an emission wavelength of 460 nm. All assays were performed in triplicate.\nThe ability of the composition comprising the compounds of Examples 2 and 3 to inhibit oxidases derived from the 3 different pollen beetle populations is presented in Table 7."}, "[2]": {"molecular_target": "T1, purified resistance-associated esterase (E4) (Myzus persicae, UniProt P35501)", "T1 construct": "5 g of aphids (stored at −20° C.) were homogenised in 0.02 M phosphate buffer pH 7.0; from tissue; host or cells: whole Myzus persicae aphids, clone 794JZ; homogenate purified over G-25 and DEAE Sepharose Fast Flow", "T1 sequence (P35501 24-552)": "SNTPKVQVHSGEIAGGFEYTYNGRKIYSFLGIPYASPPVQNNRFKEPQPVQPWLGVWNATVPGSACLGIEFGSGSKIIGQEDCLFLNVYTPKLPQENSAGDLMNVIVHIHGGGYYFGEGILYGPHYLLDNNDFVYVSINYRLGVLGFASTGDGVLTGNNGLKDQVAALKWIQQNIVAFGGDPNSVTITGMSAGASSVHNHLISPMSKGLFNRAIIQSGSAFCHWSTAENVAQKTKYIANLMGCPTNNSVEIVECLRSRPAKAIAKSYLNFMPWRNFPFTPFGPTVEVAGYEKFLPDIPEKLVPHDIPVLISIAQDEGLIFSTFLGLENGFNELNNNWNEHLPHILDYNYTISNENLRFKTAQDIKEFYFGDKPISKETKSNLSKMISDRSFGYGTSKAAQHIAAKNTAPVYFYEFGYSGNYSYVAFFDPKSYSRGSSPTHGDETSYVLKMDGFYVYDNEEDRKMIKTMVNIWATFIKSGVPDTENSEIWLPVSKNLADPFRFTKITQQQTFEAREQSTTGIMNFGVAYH", "assay": "Esterase interference assay (indirect determination of esterase inhibition)", "format": "biochemical", "details": "for Esterase protection (%) after pre-incubation with compound: no esterase = 0%, uninhibited E4 = 100%", "from_the_text": "Measuring the in vitro inhibition is not straight forward, as synergists may bind to a site other than the active site.\nThe esterase used was the well-characterised resistance associated esterase purified from M. persicae, E4, (aphid clone: 794JZ) as per Devonshire (1977) with some modifications(Devonshire A L, The properties of a carboxylesterase from the peach-potato aphid, Myzus persicae (Sulz.) and its role in conferring insecticide resistance. Biochem J 167: 675-683 (1977)). Briefly, 5 g of aphids (stored at −20° C.) were homogenised in 0.02 M phosphate buffer pH 7.0 and centrifuged at 20 000 g for 10 min. The supernatant was passed through a G-25 column using 0.02M Tris/HCl, pH 8.5 buffer. Unretarded fractions containing esterase activity were further chromatographed through DEAF Sepharose Fast Flow (Amersham Biosciences) and eluted with a linear 0-0.35 M NaCl gradient in 500 ml of Tris/HCl as above. Fractions containing carboxylesterase activity in the form of E4 were concentrated, desalted, and buffer exchanged to 0.02 M phosphate pH 7.0 for storage.\nInteractions of the purified resistance-associated esterase (E4) with Compound of Example 2, Compound of Example 3, Compound of Example 4, Compound of Example 9 and Compound of Example 11 were performed using the ‘esterase interference assay’, as described by Khot et al., with some modifications. Devonshire A L, The properties of a carboxylesterase from the peach-potato aphid, Myzus persicae (Sulz.) and its role in conferring insecticide resistance. Biochem J 167: 675-683 (1977)). Briefly, stock solutions of novel synergists (3 mM in acetone) were pre-incubated with pure E4, to give a final concentration of 0.03 mM, for 16 h at 4° C. Aliquots (15 μl ) of E4, E4+Compound of Example 2, E4+Compound of Example 3, E4+Compound of Example 4, E4+Compound of Example 9 and E4+Compound of Example 11 were incubated for 1 h with 60 μl of serial dilutions of azamethiphos in 0.02M phosphate buffer, pH 7, in separate wells of a NUNC microplate. Aliquots (25 p1) of house fly head homogenate (source of AChE) were added to each well and incubated for 15 minutes at room temperature. E4 in acetone and buffer only served as the positive and the negative controls respectively. AChE activity was measured at 405 nm using a Tmax kinetic microplate reader (Molecular Devices, Menlo Park, Calif.). Readings were taken automatically for 10 min at 10 s intervals. The rate (mOD min^−1) was calculated by the integrated software, Softmax Pro 4.6. All treatments were performed in triplicate.\nNo added esterase is giving 0% esterase protection and uninhibited esterase (E4) is giving 100% protection.\nThe materials and procedure as stated in Example 13, paragraphs 13.1, 13.1.2, 13.1.2.1 and 13.1.2.2. have been used and the following results have been obtained: […]"}}}
{"smiles": "CC#CCOc1cc2c(cc1CCC)OCO2", "note": "[Example 3, 5-(but-2-ynyloxy)-6-propyl-benzo[1.3]dioxole]", "values": [{"measurement": "Inhibition of 7-ethoxycoumarin O-deethylation (%)", "setting": "[1]; Lebork homogenate", "result": "−2.24", "unit": "%"}, {"measurement": "Inhibition of 7-ethoxycoumarin O-deethylation (%)", "setting": "[1]; Rogalin homogenate", "result": 27.6, "unit": "%"}, {"measurement": "Inhibition of 7-ethoxycoumarin O-deethylation (%)", "setting": "[1]; UK population homogenate", "result": 10.4, "unit": "%"}, {"measurement": "Reduction of esterase protection, comparison in words", "setting": "[2]; E4 esterase interference assay, Examples 13 and 16", "result": "better activity than compounds 4, 7, respectively"}, {"measurement": "Esterase protection (%) after pre-incubation with compound", "setting": "[2]; Table 2 (Example 13), 0.03 mM compound pre-incubated with E4 16 h at 4° C.", "result": 0.97, "unit": "%"}, {"measurement": "Esterase protection (%) after pre-incubation with compound", "setting": "[2]; second 'TABLE 3' (Example 16), procedure as Example 13", "result": 0.98, "unit": "%"}]}
